Here are results for 71 compounds from the C3SDB collision cross section collection.

Each structure is given as a SMILES string.

For the data set the following is noted: [M+H]+; instrument: TW.

For `CO/C=C(/C(=O)OC)c1ccccc1Oc1cc(Oc2ccccc2C#N)ncn1` [Azoxystrobin], the “collision cross section (N2)” value turned out to be 195.75 Å².

With `CC(C)(C)NCC(O)c1cc(Cl)c(N)c(Br)c1` (stereo unspecified) [Bromchlorbuterol], the “collision cross section (N2)” value came to 165.2 Å².

For `C=CCOC(=O)C(C)(C)OC(=O)c1cc(-n2c(=O)cc(C(F)(F)F)n(C)c2=O)ccc1Cl` [Butafenacil], the “collision cross section (N2)” value came out at 208.59 Å².

As to `CC(C)NCC(O)COc1cccc2[nH]c3ccccc3c12` (stereo unspecified) [Carazolol], the “collision cross section (N2)” value is 165.5 Å².

Turning to `COC(=O)Nc1nc2ccccc2[nH]1` [Carbendazim], the “collision cross section (N2)” value amounted to 134.94 Å².

On to `CON(C)C(=O)Nc1ccc(Br)c(Cl)c1` [Chlorbromuron], for which the “collision cross section (N2)” value was 152.25 Å².

Regarding `COc1nc(C)nc(NC(=O)NS(=O)(=O)c2ccccc2Cl)n1` [Chlorsulfuron], the “collision cross section (N2)” value was 175.29 Å².

For `CC(C)NCC(O)c1ccc(N)c(C#N)c1` (stereo unspecified) [Cimaterol], the “collision cross section (N2)” value is 155.4 Å².

On to `CCC(C)(C)NCC(O)c1cc(Cl)c(N)c(Cl)c1` (stereo unspecified) [Clenpenterol], for which the “collision cross section (N2)” value came to 165 Å².

Take `Clc1ccccc1-c1nnc(-c2ccccc2Cl)nn1` [Clofentezine]: the “collision cross section (N2)” value was determined as 161.9 Å².

As for `Cc1cc(C2CC2)nc(Nc2ccccc2)n1` [Cyprodinil], the “collision cross section (N2)” value is recorded as 152.07 Å².

For the compound `Nc1nc(N)nc(NC2CC2)n1` [Cyromazine], the “collision cross section (N2)” value was found to be 133.23 Å².

Turning to `Nc1ccc(S(=O)(=O)c2ccc(N)cc2)cc1` [Dapsone], the “collision cross section (N2)” value came to 149.9 Å².

For the compound `CCS(=O)(=O)CCSP(=O)(OC)OC` [Demeton-S-methyl- sulfone], the “collision cross section (N2)” value was determined as 143.66 Å².

Regarding `CC(C)c1cc(Oc2ccccc2)cc(C(C)C)c1NC(=S)NC(C)(C)C` [Diafenthiuron], the “collision cross section (N2)” value turned out to be 199.75 Å².

With `CC1COC(Cn2cncn2)(c2ccc(Oc3ccc(Cl)cc3)cc2Cl)O1` (stereo unspecified) [Difenoconazole], the “collision cross section (N2)” value is given as 198.48 Å².

`Cc1ncc([N+](=O)[O-])n1C` [Dimetridazole]: the “collision cross section (N2)” value stood at 116.4 Å².

For `C=C1C[C@@]23CC[C@H]4[C@@](C)(CCC[C@@]4(C)C(=O)O[C@@H]4O[C@H](CO)[C@@H](O)[C@H](O)[C@H]4O)[C@@H]2CC[C@]1(O[C@@H]1O[C@H](CO)[C@@H](O)[C@H](O)[C@H]1O[C@@H]1O[C@@H](C)[C@H](O)[C@@H](O)[C@H]1O)C3` [Dulcoside A], the “collision cross section (N2)” value was 270.75 Å².

With `CSC1=N[C@@](C)(c2ccccc2)C(=O)N1Nc1ccccc1` [Fenamidone], the “collision cross section (N2)” value was found to be 171.15 Å².

As to `CC1(C(=O)Nc2ccc(O)c(Cl)c2Cl)CCCCC1` [Fenhexamid], the “collision cross section (N2)” value is 164.82 Å².

For the compound `CC(Cc1ccc(C(C)(C)C)cc1)CN1CCCCC1` (stereo unspecified) [Fenpropidin], the “collision cross section (N2)” value is listed as 166.39 Å².

For the compound `CCCCOC(=O)[C@@H](C)Oc1ccc(Oc2ccc(C(F)(F)F)cn2)cc1` [Fluazafop-P-butyl], the “collision cross section (N2)” value was determined as 194.8 Å².

For the compound `O=C(NC(=O)c1c(F)cccc1F)Nc1ccc(Oc2ccc(C(F)(F)F)cc2Cl)cc1F` [Flufenoxuron], the “collision cross section (N2)” value is on record as 204.46 Å².

Regarding `CC1CCc2cc(F)cc3c(=O)c(C(=O)O)cn1c23` (stereo unspecified) [Flumequine], the “collision cross section (N2)” value amounted to 147.6 Å².

Regarding `C[C@@H]1C[C@H]2[C@@H]3C[C@H](F)C4=CC(=O)C=C[C@]4(C)[C@@]3(F)[C@@H](O)C[C@]2(C)[C@@]1(O)C(=O)CO` [Flumethasone], the “collision cross section (N2)” value turned out to be 193.2 Å².

`OC(Cn1cncn1)(c1ccc(F)cc1)c1ccccc1F` (stereo unspecified) [Flutriafol]: the “collision cross section (N2)” value came out at 163.97 Å².

`CNC(=O)Oc1cccc(N=CN(C)C)c1` [Formetanate]: the “collision cross section (N2)” value stood at 153.76 Å².

For the compound `CCOCCOC(=O)C(C)Oc1ccc(Oc2ncc(C(F)(F)F)cc2Cl)cc1` (stereo unspecified) [Haloxyfop-2-ethoxyethyl], the “collision cross section (N2)” value stood at 193.53 Å².

Regarding `O=C(NC(=O)c1c(F)cccc1F)Nc1cc(Cl)c(OC(F)(F)C(F)F)c(Cl)c1` [Hexaflumuron], the “collision cross section (N2)” value is 188.22 Å².

As for `Oc1ccc2nc(-c3cscn3)[nH]c2c1` [Hydroxythiabendazole], the “collision cross section (N2)” value turned out to be 137.2 Å².

As to `COC(=O)N(C(=O)N1CO[C@@]2(C(=O)OC)Cc3cc(Cl)ccc3C2=N1)c1ccc(OC(F)(F)F)cc1` [Indoxacarb], the “collision cross section (N2)” value is 207.03 Å².

Consider `CC(C)c1ccc(NC(=O)N(C)C)cc1` [Isoproturon], for which the “collision cross section (N2)” value is listed as 150.75 Å².

For `CCC(C)(CC)c1cc(NC(=O)c2c(OC)cccc2OC)on1` [Isoxaben], the “collision cross section (N2)” value turned out to be 184.93 Å².

For the compound `CC(C(=O)O)c1cccc(C(=O)c2ccccc2)c1` (stereo unspecified) [Ketoprofen], the “collision cross section (N2)” value was found to be 155.4 Å².

`CCC[C@@H]1C[C@@H](C(=O)N[C@@H]([C@H]2O[C@H](SC)[C@H](O)[C@@H](O)[C@H]2O)[C@@H](C)O)N(C)C1` [Lincomycin]: the “collision cross section (N2)” value was determined as 201.8 Å².

Consider `O=C(NC(=O)c1c(F)cccc1F)Nc1cc(Cl)c(OC(F)(F)C(F)C(F)(F)F)cc1Cl` (stereo unspecified) [Lufenuron], for which the “collision cross section (N2)” value is reported as 198.53 Å².

Turning to `CC(C)(C)NCC(O)c1cc(Cl)c(N)c(C(F)(F)F)c1` (stereo unspecified) [Mabuterol], the “collision cross section (N2)” value was 168.4 Å².

Turning to `C#CCOc1ccc(CCNC(=O)C(OCC#C)c2ccc(Cl)cc2)cc1OC` (stereo unspecified) [Mandipropamid], the “collision cross section (N2)” value was 195.15 Å².

As for `Cc1cnc(/N=C(\O)C2=C(O)c3ccccc3S(=O)(=O)N2C)s1` [Meloxicam], the “collision cross section (N2)” value stood at 174.9 Å².

Take `CC1(C)CCC(Cc2ccc(Cl)cc2)C1(O)Cn1cncn1` (stereo unspecified) [Metconazole]: the “collision cross section (N2)” value worked out at 168.62 Å².

As to `CON(C)C(=O)Nc1ccc(Cl)cc1` [Monolinuron], the “collision cross section (N2)” value is 142.9 Å².

Regarding `Cc1ccsc1/C=C/C1=NCCCN1C` [Morantel], the “collision cross section (N2)” value was determined as 149.7 Å².

For the compound `CCn1cc(C(=O)O)c(=O)c2ccc(C)nc21` [Nalidixic acid], the “collision cross section (N2)” value was determined as 141.4 Å².

As for `CC(C)Oc1cc(-n2nc(C(C)(C)C)oc2=O)c(Cl)cc1Cl` [Oxadiazon], the “collision cross section (N2)” value was determined as 182.17 Å².

`CCn1cc(C(=O)O)c(=O)c2cc3c(cc21)OCO3` [Oxolinic acid]: the “collision cross section (N2)” value turned out to be 147.8 Å².

Turning to `CN(C)[C@@H]1C(O)=C(C(N)=O)C(=O)[C@@]2(O)C(O)=C3C(=O)c4c(O)cccc4[C@@](C)(O)[C@H]3[C@H](O)[C@@H]12` [Oxytetracycline], the “collision cross section (N2)” value is recorded as 202.3 Å².

For `CCC(NC(C)C)C(O)c1ccc(O)c2[nH]c(=O)ccc12` (stereo unspecified) [Procaterol], the “collision cross section (N2)” value came out at 168 Å².

Take `CC(C)N(C(=O)CCl)c1ccccc1` [Propachlor]: the “collision cross section (N2)” value is reported as 142.07 Å².

Regarding `CCC(=O)c1ccc2c(c1)N(CCCN(C)C)c1ccccc1S2` [Propionylpromazine], the “collision cross section (N2)” value is reported as 182.8 Å².

Take `Ic2ccc1\N=C(\OCCC)N(C(=O)c1c2)CCC` [Proquinazid]: the “collision cross section (N2)” value is 169.35 Å².

For `Cc1cc(C)nc(Nc2ccccc2)n1` [Pyrimethanil], the “collision cross section (N2)” value was 142.95 Å².

Turning to `CCOP(=S)(OCC)Oc1cnc2ccccc2n1` [Quinalphos], the “collision cross section (N2)” value was 165.1 Å².

`CC(CCc1ccc(O)cc1)NCC(O)c1ccc(O)cc1` (stereo unspecified) [Ractopamine]: the “collision cross section (N2)” value turned out to be 168.9 Å².

On to `C[C@H](NCCc1ccc(O)cc1)[C@H](O)c1ccc(O)cc1` [Ritodrine], for which the “collision cross section (N2)” value was found to be 165.8 Å².

Regarding `Cn1c([N+](=O)[O-])cnc1COC(N)=O` [Ronidazole], the “collision cross section (N2)” value worked out at 131.6 Å².

Consider `C=C(C)C1Cc2c(ccc3c2OC2COc4cc(OC)c(OC)cc4C2C3=O)O1` (stereo unspecified) [Rotenone], for which the “collision cross section (N2)” value came out at 195.01 Å².

Regarding `CC(C)(C)NCC(O)c1ccc(O)c(CO)c1` (stereo unspecified) [Salbutamol], the “collision cross section (N2)” value came out at 158.3 Å².

As to `CCOC(=O)OC1=C(c2cc(C)ccc2C)C(=O)NC12CCC(OC)CC2` (stereo unspecified) [Spirotetramat], the “collision cross section (N2)” value turned out to be 189.99 Å².

In the case of `C=C1C[C@@]23CC[C@H]4[C@@](C)(CCC[C@@]4(C)C(=O)O)[C@@H]2CC[C@]1(O)C3` [Steviol], the “collision cross section (N2)” value was 173.38 Å².

In the case of `Nc1ccc(S(=O)(=O)Nc2ccc(Cl)nn2)cc1` [Sulfachloropyridazine], the “collision cross section (N2)” value is 156.9 Å².

Turning to `Nc1ccc(S(=O)(=O)Nc2ncccn2)cc1` [Sulfadiazine], the “collision cross section (N2)” value was 148.7 Å².

On to `Cc1cc(C)nc(NS(=O)(=O)c2ccc(N)cc2)n1` [Sulfadimidine], for which the “collision cross section (N2)” value amounted to 159.7 Å².

In the case of `COc1ncnc(NS(=O)(=O)c2ccc(N)cc2)c1OC` [Sulfadoxine], the “collision cross section (N2)” value is reported as 166.6 Å².

With `Cc1nnc(NS(=O)(=O)c2ccc(N)cc2)s1` [Sulfamethizole], the “collision cross section (N2)” value is 152.2 Å².

Take `Cc1nn(-c2cc(NS(C)(=O)=O)c(Cl)cc2Cl)c(=O)n1C(F)F` [Sulfentrazone]: the “collision cross section (N2)” value turned out to be 173.63 Å².

`Cc1noc(NS(=O)(=O)c2ccc(N)cc2)c1C` [Sulfisoxazole]: the “collision cross section (N2)” value is listed as 157.4 Å².

On to `CCc1nn(C)c(C(=O)NCc2ccc(C(C)(C)C)cc2)c1Cl` [Tebufenpyrad], for which the “collision cross section (N2)” value is recorded as 191.25 Å².

Take `CN(C)[C@@H]1C(O)=C(C(N)=O)C(=O)[C@@]2(O)C(O)=C3C(=O)c4c(O)cccc4[C@@](C)(O)[C@H]3C[C@@H]12` [Tetracycline]: the “collision cross section (N2)” value was determined as 197.3 Å².

For the compound `Cc1c(Cl)cccc1Nc1ccccc1C(=O)O` [Tolfenamic acid], the “collision cross section (N2)” value is recorded as 153.7 Å².

With `Cc1ccc(C(=O)c2ccc(CC(=O)O)n2C)cc1` [Tolmetin], the “collision cross section (N2)” value came out at 156.7 Å².

For `COP(=O)(OC)C(O)C(Cl)(Cl)Cl` (stereo unspecified) [Trichlorfon], the “collision cross section (N2)” value is listed as 136.12 Å².
